In US8298513B2, “Hexatriene-β-carbonyl compound” (Osaka University, priority 2007, dated 2012):

Legend:
[1] = molecular target: T1, human serum albumin (HSA) (Homo sapiens, UniProt P02768); test: Labeling of human serum albumin (HSA) with Compound 8, 57Co incorporation, gamma ray counting; details: room temperature 30 minutes, PBS, gamma ray count
Experimental: HSA (0.5 mg, 7.5 nmol was dissolved in a PBS buffer solution (1.5 ml) to prepare a 5 μM HSA solution. 320 μl (1.6 nmol) of the HSA solution was introduced into each of 3 Eppendorf tubes. 1.2 μl (40 nmol), 2.3 μl (80 nmol) and 11.8 μl (0.4 μmol) of a DMF solution (3.38×10^−2M) of Compound 8 described above were added to the respective Eppendorf tubes. 160 μl (0.8 nmol) of the 5 μM HSA solution was added to each of the Eppendorf tubes, and 11.8 μl (0.4 μmol) of a DMF solution (3.38×10^−2M) of Compound 8 described above was added to each tube. The reaction mixtures all were left to stand at room temperature for 30 minutes. Purification was performed using a filter with a 30000 molecular weight cut off manufactured by Millipore, followed by concentration. The protein concentration in the contents of each Eppendorf tube was measured, 5 μl of the contents of each Eppendorf tube were added to other Eppendorf tubes, and a 0.25 M ammonium acetate buffer solution (15 μl) and a 400 μM ^57Co solution (10 μl) were added thereto. The reaction mixtures were incubated at 41° C. for 3 hours. 10 μl of a 0.01 M 1,4,7,10-tetraazacyclododecane-1,4,7,10-tetraacetic acid (DOTA) solution was added to each reaction mixture, and incubation was performed at 41° C. for 10 minutes. […] The silica gel plates were cut in half lengthwise, and gamma rays were counted with a gamma ray counter using the plates.

anti-GFP antibody = test: Labeling of anti-GFP antibody with Compound 8, GFP fluorescence measurement after immune precipitation; details: 10 to 1250 equivalents, room temperature 10 minutes; GFP fluorescence excitation 395 nm, emission 509 nm
Experimental: To a PBS buffer solution (81 μl) was added 27 μl of an anti-GFP antibody (20 μg/μl, PBS buffer solution, manufactured by Nacalai Tesque, Inc.) for dilution. The diluted anti-GFP solution was added to 4 Eppendorf tubes each in an amount of 3.3 μM, 8 μl, 2.6×10^−11 mol, and Compound 8 was added in a proportion of 10 equivalents (24 μM, 5 μl, 2.6×10^−10 mol), 50 equivalents (0.12 mM, 5 μl, 1.3×10^−9 mol), 250 equivalents (0.61 mM, 5 μl, 6.6×10^−9 mol) and 1250 equivalents (12 mM, 2.7 μl, 3.3×10^−8 mol) relative to the anti-GFP antibody. The mires were left to stand for 10 minutes at room temperature, and then a GFP antigen (cultured from Escherichia coli, PBS buffer solution, 1000 μl) was added and reacted at 4° C. for 1 hour. Thereafter, Protein G (500 μg, manufactured by GE Healthcare Ltd.) was added to the mixtures and left to stand at the same temperature for 30 minutes. Then, labeled anti-GFP (Compound 24) was purified by subjecting the mixtures to immune precipitation. GFP fluorescence measurement (excitation: 395 nm, emission: 509 nm) was performed on each anti-GFP.

[2] = molecular target: T1, human serum albumin (HSA); test: Labeling of human serum albumin (HSA), fluorescence spectrum of the reaction product; details: phosphate buffer pH 7.4, 40° C. for 1 hour; 420 nm excitation light
Experimental: HSA was dissolved in a phosphate buffer (0.1 M, pH 7.4) to adjust the concentration to 5.0×10^−5 M. 20 μl of a phosphate buffer (0.1 M, pH 7.4) was added to 200 μl of the solution for dilution, and the mixture was pre-incubated at 40° C. for 5 minutes. A 1,4-dioxane (20 μl) solution of Compound 50 (50 μg, 0.1 μmol) was added to the mixture, and the mixture was incubated at 40° C. for 1 hour. 300 μl of 1% acetic acid was added to the reaction solution to quench the reaction, and the reaction solution was purified by gel filtration and lyophilized.
HSA was dissolved in a phosphate buffer solution (0.1 M, pH 7.4) to adjust the concentration to 5.0×10^−5 M. 20 μl of a phosphate buffer solution (0.1 M, pH 7.4) was added to 200 μl of the solution for dilution, and the mixture was pre-incubated at 40° C. for 5 minutes. A 1,4-dioxane (20 μl) solution of Compound 56 (50 μg, 0.1 μmol) was added to the mixture, and the mixture was incubated at 40° C. for 1 hour. 300 μl of 1% acetic acid was added to the reaction solution to quench the reaction, and the reaction solution was purified by gel filtration and lyophilized.

[3] = PET imaging of the biodistribution of 68Ga-DOTA-labeled somatostatin in a rat; format: in vivo, rat (Wistar rat); details: tail vein, given as 68Ga-DOTA-labeled somatostatin (Compound 41), accumulated 3 to 7 minutes after administration
Experimental: A DMF solution (40 μl) of Compound 8 produced in Example 3 described above was added to a solution of somatostatin (0.17 mg, 0.10 μmol) in Otsuka distilled water (154 μl) and put into a vortex generator. The reaction mixture was left to stand at room temperature for 30 minutes and then lyophilized, thereby giving the titled Compound 9.
A 1 N hydrochloric acid solution (400 μl) of ^68GaCl3 eluted from a ^68Ga/^68Ge generator was purified, neutralized with aqueous 4 N NaOH and then added to Compound 9 described above. After incubation at 40° C. for 10 minutes, it was injected into a rat (Wistar rat 8W, male, 235 g) (1.68 mCi). Propofol was administered continuously at a rate of […] into the tail vein of the rat for tranquilization, and a PET tracer was administered into the tail vein of the rat.

T1 sequence (P02768 25-609): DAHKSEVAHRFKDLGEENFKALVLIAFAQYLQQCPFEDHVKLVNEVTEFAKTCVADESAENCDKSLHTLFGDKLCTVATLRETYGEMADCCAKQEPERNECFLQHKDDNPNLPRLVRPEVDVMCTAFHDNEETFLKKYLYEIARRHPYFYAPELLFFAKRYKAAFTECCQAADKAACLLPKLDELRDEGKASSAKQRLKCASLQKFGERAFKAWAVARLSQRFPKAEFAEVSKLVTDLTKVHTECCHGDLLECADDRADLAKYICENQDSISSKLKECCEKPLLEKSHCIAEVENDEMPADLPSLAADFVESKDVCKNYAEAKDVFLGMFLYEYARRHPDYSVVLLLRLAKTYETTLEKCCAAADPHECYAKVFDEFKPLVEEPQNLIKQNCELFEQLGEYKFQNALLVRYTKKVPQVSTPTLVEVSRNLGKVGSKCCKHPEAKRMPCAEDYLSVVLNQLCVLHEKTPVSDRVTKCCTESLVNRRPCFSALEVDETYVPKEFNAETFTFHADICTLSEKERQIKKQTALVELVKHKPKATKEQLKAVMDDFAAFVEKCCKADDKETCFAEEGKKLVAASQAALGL

CCOC(=O)C(/C=C/c1ccc(NC(=O)CNC(=O)CN2CCN(CC(=O)O)CCN(CC(=O)O)CCN(CC(=O)O)CC2)cc1)=C/C=O [Compound 8, 10-(2-(2-(4-((1E,3E)-3-ethoxycarbonyl-5-oxopenta-1,3-dienyl)phenylamino)-2-oxoethylamino)-2-oxoethyl)-1,4,7,10-tetraazacyclododecane-1,4,7-triacetic acid]
labeling reaction with HSA (incorporation into HSA, FIG. 1) [1]: promptly reacts with somatostatin | labeling reaction with anti-GFP antibody (incorporation into antibody, FIG. 2) (anti-GFP antibody): promptly reacts with the anti-GFP antibody

CCN(CC)c1ccc2cc(C(=O)NCCOCCOC(=O)C(/C=C/c3ccccc3)=C/C=O)c(=O)oc2c1 [Compound 50, 2-(2-(7-diethylaminocoumarin)-3-carbonylaminoethoxy)ethyl (E,E)-4-oxo-2-styrylbut-2-enoate]
fluorescence of the reaction product with HSA [2]: intense fluorescence was observed near 460 nm

CCN(CC)c1ccc2cc(C(=O)NCCOCCOC(=O)C(/C=C/c3ccc(NC(=O)CCCCCNc4ccc([N+](=O)[O-])c5nonc45)cc3)=C/C=O)c(=O)oc2c1 [Compound 56, 2-(2-(7-diethylaminocoumarin)-3-carbonylaminoethoxy)ethyl (E,E)-4-oxo-2-((6-(N-(7-nitrobenz-2-oxa-1,3-diazol-4-yl)amino)hexanamide)styryl)but-2-enoate]
fluorescence of the reaction product with HSA [2]: intense fluorescence was observed near 460 nm

C[C@H](N)C(=O)NCC(=O)N[C@H]1CSSC[C@@H](C(=O)O)NC(=O)[C@H](CO)NC(=O)[C@H]([C@@H](C)O)NC(=O)[C@H](Cc2ccccc2)NC(=O)[C@H]([C@@H](C)O)NC(=O)[C@H](CCCCN)NC(=O)[C@H](Cc2c[nH]c3ccccc23)NC(=O)[C@H](Cc2ccccc2)NC(=O)[C@H](Cc2ccccc2)NC(=O)[C@H](CC(N)=O)NC(=O)[C@H](CCCCN)NC1=O [somatostatin]
distribution in the living body (PET image, FIG. 3) [3]: distributed across the heart of the rat
